Test results as given in patent US20200306295A1, “METHOD AND DEVICE FOR ANNIHILATION OF Staphylococcus aureus” (priority 2017, published 2020).

Tested on: 200 kinds of cytokines
Test: Fold change of 200 cytokines in homogenized wound tissue
Format: in vivo, Balb/c mice
Settings: mean; wound tissue
Source text: To quantify the physiological condition of the wound tissues, we measured the concentrations of 200 kinds of cytokines (Table. 1) from the supernatant of homogenized tissue solution. Cytokines are small secreted proteins released by cells and have specific effect on the interactions and communications between cells (25).
To initiate the formation of a skin wound, five groups (n=5) of eight-week old female Balb/c mice (obtained from Harlan Laboratories, Indianapolis, Ind., USA) were disinfected with ethanol (70%) and shaved on the middle of the back (approximately a one-inch by one-inch square region around the injection site) one day prior to infection as described from a reported procedure (3). To prepare the bacterial inoculum, an aliquot of overnight culture of MRSA USA300 was transferred to fresh Tryptic soy broth and shaken at 37° C. until an OD600 value of ˜1.0 was achieved. The cells were centrifuged, washed once with PBS, re-centrifuged, and then re-suspended in PBS. Mice subsequently received an intradermal injection (40 μL) containing 2.40×10^9 CFU/mL MRSA USA300.
One group of mice was left untreated (negative control). Each group of mice receiving a particular treatment regimen was housed separately in a ventilated cage with appropriate bedding, food, and water. […] Mice were treated twice daily (once every 12 hours) for three days, before they were humanely euthanized via CO2 asphyxiation 12 hours after the last dose was administered. The region around the skin wound was lightly swabbed with ethanol (70%) and excised. The tissue was subsequently homogenized in PBS. The homogenized tissue was then serially diluted in PBS before plating onto mannitol salt agar plates. Plates were incubated for at least 19 hours at 37° C. before viable MRSA CFU/mL were counted for each group. Outlier was removed based upon the Dixon Q Test.

**Q.** With `CC(=O)O[C@H]1C[C@@]2(C)[C@@H](C[C@@H](O)[C@H]3[C@@]4(C)CC[C@@H](O)[C@@H](C)[C@@H]4CC[C@@]32C)/C1=C(\CCC=C(C)C)C(=O)O` [fusidic acid] as the molecule, how does the “fold change of IL-1ra” value read?
**A.** 0.3851

**Q.** And the “fold change of IL-2” value?
**A.** 0.0606

**Q.** And the “fold change of IL-2 Ra” value?
**A.** 0.1879

**Q.** And the “fold change of IL-3” value?
**A.** −0.1398

**Q.** What about the “fold change of IL-3 Rb” value of the same molecule?
**A.** 0.0789

**Q.** And the “fold change of IL-4” value?
**A.** −0.0096

**Q.** What about the “fold change of IL-5” value of the same molecule?
**A.** −0.0953

**Q.** What about the “fold change of IL-6” value of the same molecule?
**A.** 0.2682

**Q.** And the “fold change of IL-7” value?
**A.** 0.1116

**Q.** And the “fold change of IL-7 Ra” value?
**A.** −0.7276

**Q.** What about the “fold change of IL-9” value of the same molecule?
**A.** 0.1408

**Q.** And the “fold change of IL-10” value?
**A.** −0.0351

**Q.** What about the “fold change of IL-12p40” value of the same molecule?
**A.** 0.0324

**Q.** What about the “fold change of IL-12p70” value of the same molecule?
**A.** 0.0029

**Q.** What about the “fold change of IL-13” value of the same molecule?
**A.** −0.5654

**Q.** And the “fold change of IL-15” value?
**A.** −0.0506

**Q.** What about the “fold change of IL-17” value of the same molecule?
**A.** 0.2684

**Q.** What about the “fold change of IL-17B” value of the same molecule?
**A.** −0.0513

**Q.** And the “fold change of IL-17B R” value?
**A.** 0.4884

**Q.** And the “fold change of IL-17E” value?
**A.** −0.1800

**Q.** What about the “fold change of IL-17F” value of the same molecule?
**A.** 0.2592

**Q.** And the “fold change of IL-20” value?
**A.** 0.0953

**Q.** What about the “fold change of IL-21” value of the same molecule?
**A.** −0.4052

**Q.** What about the “fold change of IL-22” value of the same molecule?
**A.** −0.0487

**Q.** And the “fold change of IL-23” value?
**A.** 0.2627

**Q.** What about the “fold change of IL-28” value of the same molecule?
**A.** −0.1588

**Q.** What about the “fold change of IL-33” value of the same molecule?
**A.** 0.3416

**Q.** And the “fold change of JAM-A” value?
**A.** 0.3062

**Q.** And the “fold change of KC” value?
**A.** 0.0909

**Q.** And the “fold change of Kremen-1” value?
**A.** 0.2672

**Q.** And the “fold change of L-Selectin” value?
**A.** −0.3559

**Q.** What about the “fold change of LIX” value of the same molecule?
**A.** −0.0313

**Q.** What about the “fold change of LOX-1” value of the same molecule?
**A.** 0.0568

**Q.** And the “fold change of Leptin” value?
**A.** −0.1199

**Q.** What about the “fold change of Leptin R” value of the same molecule?
**A.** 0.1134

**Q.** And the “fold change of Limitin” value?
**A.** −0.1844

**Q.** And the “fold change of Lipocalin-2” value?
**A.** −0.0695

**Q.** What about the “fold change of Lungkine” value of the same molecule?
**A.** −0.0819

**Q.** What about the “fold change of Lymphotactin” value of the same molecule?
**A.** 0.0908

**Q.** And the “fold change of MCP-1” value?
**A.** 0.0071

**Q.** And the “fold change of MCP-5” value?
**A.** −0.0915

**Q.** And the “fold change of MCSF” value?
**A.** −0.5503

**Q.** And the “fold change of MDC” value?
**A.** −0.0764

**Q.** And the “fold change of MFG-E8” value?
**A.** 0.4647

**Q.** What about the “fold change of MIG” value of the same molecule?
**A.** 0.5378

**Q.** And the “fold change of MIP-1a” value?
**A.** −0.3165

**Q.** What about the “fold change of MIP-1b” value of the same molecule?
**A.** −0.5769

**Q.** What about the “fold change of MIP-1g” value of the same molecule?
**A.** 0.0304

**Q.** And the “fold change of MIP-2” value?
**A.** −0.0070

**Q.** What about the “fold change of MIP-3a” value of the same molecule?
**A.** 0.3460

**Q.** And the “fold change of MIP-3b” value?
**A.** 0.0690

**Q.** And the “fold change of MMP-2” value?
**A.** 0.1026

**Q.** What about the “fold change of MMP-3” value of the same molecule?
**A.** −0.1230

**Q.** And the “fold change of MMP-10” value?
**A.** 0.3470

**Q.** And the “fold change of MadCAM-1” value?
**A.** −0.0787

**Q.** And the “fold change of Marapsin” value?
**A.** −0.1703

**Q.** What about the “fold change of Neprilysin” value of the same molecule?
**A.** 0.5936

**Q.** What about the “fold change of OPG” value of the same molecule?
**A.** 0.9914

**Q.** What about the “fold change of OPN” value of the same molecule?
**A.** 0.8216

**Q.** And the “fold change of P-selectin” value?
**A.** −0.2374

**Q.** What about the “fold change of PDGF-AA” value of the same molecule?
**A.** 0.4578

**Q.** And the “fold change of PF4” value?
**A.** −0.6256

**Q.** What about the “fold change of Pentraxin 3” value of the same molecule?
**A.** −0.6735

**Q.** What about the “fold change of Persephin” value of the same molecule?
**A.** 0.5348

**Q.** What about the “fold change of Pro-MMP-9” value of the same molecule?
**A.** 0.0197

**Q.** And the “fold change of Prolactin” value?
**A.** 0.4580

**Q.** What about the “fold change of RAGE” value of the same molecule?
**A.** 0.1727

**Q.** And the “fold change of RANTES” value?
**A.** −0.2545

**Q.** What about the “fold change of Resistin” value of the same molecule?
**A.** 0.2752

**Q.** What about the “fold change of SCF” value of the same molecule?
**A.** 0.1498

**Q.** And the “fold change of SDF-1a” value?
**A.** 0.1707

**Q.** What about the “fold change of SLAM” value of the same molecule?
**A.** 0.1871

**Q.** What about the “fold change of Shh-N” value of the same molecule?
**A.** −0.0849

**Q.** And the “fold change of TACI” value?
**A.** 0.4640

**Q.** And the “fold change of TARC” value?
**A.** 0.3205

**Q.** And the “fold change of TCA-3” value?
**A.** −0.1264

**Q.** What about the “fold change of TCK-1” value of the same molecule?
**A.** −0.0185

**Q.** What about the “fold change of TECK” value of the same molecule?
**A.** 0.4529

**Q.** What about the “fold change of TGFb1” value of the same molecule?
**A.** 0.0743

**Q.** What about the “fold change of TNF RI” value of the same molecule?
**A.** −0.1306

**Q.** And the “fold change of TNF RII” value?
**A.** −0.2811

**Q.** And the “fold change of TNFα” value?
**A.** −0.4306

**Q.** And the “fold change of TPO” value?
**A.** 0.2663

**Q.** What about the “fold change of TRANCE” value of the same molecule?
**A.** 0.0310

**Q.** What about the “fold change of TREM-1” value of the same molecule?
**A.** 0.0981

**Q.** What about the “fold change of TROY” value of the same molecule?
**A.** 0.0517

**Q.** And the “fold change of TSLP” value?
**A.** −0.0086

**Q.** And the “fold change of TWEAK” value?
**A.** −0.0621

**Q.** And the “fold change of TWEAK R” value?
**A.** −0.2341

**Q.** And the “fold change of TremL1” value?
**A.** −0.0440

**Q.** What about the “fold change of VCAM-1” value of the same molecule?
**A.** −0.0283

**Q.** And the “fold change of VEGF” value?
**A.** 0.0403

**Q.** And the “fold change of VEGF R1” value?
**A.** 0.1580

**Q.** And the “fold change of VEGF R3” value?
**A.** 0.1061

**Q.** And the “fold change of VEGF-B” value?
**A.** 0.0230

**Q.** What about the “fold change of VEGF-D” value of the same molecule?
**A.** 0.0367

**Q.** And the “fold change of bFGF” value?
**A.** −0.4981

**Q.** And the “fold change of gp130” value?
**A.** 0.5867

**Q.** And the “fold change of sFRP-3” value?
**A.** 0.0607
